According to patent publication US5128344A, “Sampangine and derivatives useful as an antifungal agent” (University of Mississippi, priority 1990, dated 1992):
≈ marks a conversion by molar mass, not a printed value. Entries after “also recorded” stand apart in the source; their conditions may differ.

Experiments:
Candida albicans [1] = conditions: J. Natural Products 1987, Hufford et al.; cited from earlier work
Candida albicans [2] = assay: MIC, twofold serial broth dilution assay, Candida albicans; type: cell-based, Candida albicans NIH B311; conditions: 24 h, 37°
Protocol: (§1) Candida albicans NIH B311 used to induce experimental disseminated candidiasis was used for the initial qualitative evaluation of anticandidal activity. The organism was grown in Sabouraud-dextrose broth (SDB) for 24 hours at 37°, at which time the cells were harvested by centrifugation at (4°, 2000 rpm, 3 min.). After centrifugation, the cells were washed and suspended in sterile 0.9% saline to give a final concentration of 10^6 colony forming units (CFU) per ml (adjusted using a hemocytometer). Inocula of Cryptococcus neoformans and Aspergillus fumigatus were prepared by suspension of the surface growth of stock agar slants in sterile H2 O. Culture plates (15×100 mm) for the qualitative assay were prepared from 25 ml of Sabouraud-dextrose agar for Candida albicans, and Mycophil™ agar for Cryptococcus neoformans and Aspergillus fumigatus. Using sterile cotton swabs, the plates were streaked with the suspension of appropriate test organism. Cylindrical plugs were removed from the agar plates by means of sterile cork borer to produce wells with a diameter of approximately 11 mm. To the well was added 100 μl of solution or suspension of an extract, fraction, or pure compound. Crude extracts and fractions were tested at a concentration of 20 mg/ml, whereas pure compounds were tested at 1 mg/ml. When solvents other than water, ethanol, methanol, dimethylsulfoxide (DMSO), dimethylformamide (DMF), or acetone were required to dissolve extracts or compounds, solvent blanks were included. Antifungal activity was recorded as the width (in mm) of the zone of inhibition, measured from the edge of the agar well to the edge of the zone, following incubation of the plates for 24 hours (37° for Candida albicans, 30° for Aspergillus fumigatus and 26° for Cryptococcus neoformans). The antifungal agents amphotericin B and ketoconazole were included as positive controls in each assay.
(§2) The method used to determine the minimum inhibitory concentration (MIC) was the twofold serial broth dilution assay in one or more of the following broth media: yeast nitrogen broth, Mycophil™ broth and Saboraud-dextrose broth (SDB). The inoculum for the MIC determination was prepared as described above for the qualitative evaluation. Using a calibrated sterile wire loop, each tube was inoculated with 10 μl of the suspension. The MIC value was taken as the lowest concentration of compound that inhibited the growth of the test organisms after an appropriate incubation period (37° for 24 hours for Candida albicans; 30° for 48 hours for Aspergillus fumigatus; 26° for 48 hours for Cryptococcus neoformans). The antifungal agent amphotericin B was included as positive control in each assay.

Cryptococcus neoformans = assay: MIC, twofold serial broth dilution assay, Cryptococcus neoformans; type: cell-based, Cryptococcus neoformans ATCC 32264; conditions: 48 h, Cn, 26°
Protocol: (§3) The generic name for the compound is 3-Methoxysampangine. The antifungal activity of the compound was determined by in vitro evaluation against Candida albicans NIH B311, Cryptococcus neoformans ATCC 32264, and Aspergillus fumigatus ATCC 26934 using the known agar-well diffusion assay techniques with the following modifications.
as §1, §2

Aspergillus fumigatus = assay: MIC, twofold serial broth dilution assay, Aspergillus fumigatus; type: cell-based, Aspergillus fumigatus ATCC 26934; conditions: Af, 30°, 48 hours
Protocol: as §3, §1, §2

[3] = tested on: Candida albicans, Cryptococcus neoformans and Aspergillus fumigatus; assay: in vitro antifungal activity, overall statement in words; type: cell-based; conditions: against both yeasts and the filamentous fungus
Protocol: as §3, §1
The method used to determine the minimum inhibitory concentration (MIC) was the twofold serial broth dilution assay in one or more of the following broth media: yeast nitrogen broth, Mycophil™ broth and Saboraud-dextrose broth (SDB). The inoculum for the MIC determination was prepared as described above for the qualitative evaluation. Using a calibrated sterile wire loop, each tube was inoculated with 10 μl of the suspension. […]

[4] = Ca B311, YNB (yeast nitrogen base broth)
[5] = Candida albicans, Ca B311, MYCO (Mycophil broth)
[6] = Candida albicans, Ca B311, SDB (Sabouraud dextrose broth)
[7] = YNB (yeast nitrogen base broth)
[8] = Cryptococcus neoformans, MYCO (Mycophil broth)
[9] = Cryptococcus neoformans, SDB (Sabouraud dextrose broth)

| SMILES | MIC (Candida albicans [2]; [4]) [µg/mL] | MIC (Candida albicans [2]; [5]) [µg/mL] | MIC (Candida albicans [2]; [6]) [µg/mL] | MIC (Cryptococcus neoformans; [7]) [µg/mL] | MIC (Cryptococcus neoformans; [8]) [µg/mL] | MIC (Cryptococcus neoformans; [9]) [µg/mL] | MIC (Aspergillus fumigatus; MYCO (Mycophil broth)) [µg/mL] | MIC (Aspergillus fumigatus; SDB (Sabouraud dextrose broth)) [µg/mL] | MIC (Candida albicans [2]; Ca B311, YNB (yeast nitrogen base broth) (original)) [µg/mL] | MIC (Cryptococcus neoformans; YNB (yeast nitrogen base broth) (original)) [µg/mL] | anticandidal properties (in words) (Candida albicans [1]) | antifungal activity (in words) [3] |
| --- | --- | --- | --- | --- | --- | --- | --- | --- | --- | --- | --- | --- |
| c1ccc2c(c1)-c1nccc3ccnc-2c13 [eupolauridine] | – | – | – | – | – | – | – | – | – | – | possibly remarkable anticandidal properties | – |
| O=C1c2ccccc2-c2nccc3c(Br)cnc1c23 [4-Bromosampangine] | 12.5 (≈ 40.2 µM) | 25 (≈ 80.4 µM) | 25 (≈ 80.4 µM) | < 0.2 | < 0.2 | 0.39 (≈ 1.25 µM) | 50 (≈ 161 µM) | – | – | – | – | significant antifungal activity |
| O=C1c2ccccc2-c2nccc3ccnc1c23 [Sampangine] | 0.78 (≈ 3.36 µM) | 12.5 (≈ 53.8 µM) | 6.25 (≈ 26.9 µM) | < 0.2 | 0.78 (≈ 3.36 µM) | < 0.2 | 1.56 (≈ 6.72 µM) | – | 1.56 (≈ 6.72 µM) | < 0.005 | – | significant antifungal activity |
| COc1cnc2c3c(nccc13)-c1ccccc1C2=O [4-Methoxysampangine] | 3.12 (≈ 11.9 µM) | 100 (≈ 381 µM) | 100 (≈ 381 µM) | 12.5 (≈ 47.7 µM) | 1.56 (≈ 5.95 µM) | 3.12 (≈ 11.9 µM) | – | – | – | – | – | significant antifungal activity |

Continued, in another order:

| MIC (Candida albicans [2]; [4]) [µg/mL] | MIC (Candida albicans [2]; [5]) [µg/mL] | MIC (Candida albicans [2]; [6]) [µg/mL] | MIC (Cryptococcus neoformans; [7]) [µg/mL] | MIC (Cryptococcus neoformans; [8]) [µg/mL] | MIC (Cryptococcus neoformans; [9]) [µg/mL] | MIC (Aspergillus fumigatus; MYCO (Mycophil broth)) [µg/mL] | MIC (Aspergillus fumigatus; SDB (Sabouraud dextrose broth)) [µg/mL] | MIC (Candida albicans [2]; Ca B311, YNB (yeast nitrogen base broth) (original)) [µg/mL] | MIC (Cryptococcus neoformans; YNB (yeast nitrogen base broth) (original)) [µg/mL] | SMILES | anticandidal properties (in words) (Candida albicans [1]) | antifungal activity (in words) [3] |
| --- | --- | --- | --- | --- | --- | --- | --- | --- | --- | --- | --- | --- |
| – | – | 3.12 (≈ 11.9 µM) | – | – | 0.2 (≈ 0.763 µM) | – | 3.12 (≈ 11.9 µM) | – | – | COc1cnc2c3c(nccc13)C(=O)c1ccccc1-2 [3-Methoxysampangine] | – | significant antifungal activity; also recorded: remarkable antifungal properties |
| – | 0.2 (≈ 0.216 µM) | – | – | 0.2 (≈ 0.216 µM) | – | 3.12 (≈ 3.38 µM) | – | – | – | C[C@@H]1[C@H](O)[C@@H](C)/C=C/C=C/C=C/C=C/C=C/C=C/C=C/[C@H](O[C@@H]2O[C@H](C)[C@@H](O)[C@H](N)[C@@H]2O)C[C@@H]2O[C@](O)(C[C@@H](O)C[C@@H](O)[C@H](O)CC[C@@H](O)C[C@@H](O)CC(=O)O[C@H]1C)C[C@H](O)[C@H]2C(=O)O [Amphotericin B, reference compound] | – | – |
| 3.12 (≈ 11.1 µM) | 50 (≈ 177 µM) | 1.56 (≈ 5.53 µM) | 1.56 (≈ 5.53 µM) | < 0.2 | < 0.2 | 0.39 (≈ 1.38 µM) | – | – | – | O=C1c2ccccc2-c2nccc3c2c1nc1ccccc13 [Benzo[4,5]sampangine] | – | – |
